Experimental data taken from PubChem BioAssay AID1918944 (Molecular Pharmacology Branch, DTP, NCI, 2023).
Values joined by “and” are separate entries in the source; they are usually repeats but may differ in a detail not shown here. Equal values may be shown once.

Tested on: 786-0 complex spheroid viability
Assay: Anticancer human tumor 786-0 cell line growth inhibition;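 also: spheroids exposed to agents for seven days before readout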
Settings: for viability, T/C: stronger effect = lower value
Method in brief: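 Drug combinations with the LSD1 inhibitor iadademstat tested on tumor cells co-cultured as spheroids with endothelial cells and mesenchymal stem cells. Concentrations descended in half-log increments from clinical Cmax or 10 microM.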

[1] = curve of first compound, second compound 0.1 µM
[2] = curve of first compound, second compound 0.316 µM
[3] = curve of first compound, second compound 1 µM
[4] = curve of first compound, second compound 3.16 µM
[5] = curve of first compound, second compound 10 µM
[6] = second compound 0.1 µM, first compound 0.0316 µM
[7] = second compound 0.1 µM, first compound 0.1 µM
[8] = second compound 0.1 µM, first compound 0.316 µM
[9] = second compound 0.1 µM, first compound 1 µM
[10] = second compound 0.1 µM, first compound 3.16 µM
[11] = second compound 0.1 µM, first compound 10 µM
[12] = second compound 0.316 µM, first compound 0.0316 µM
[13] = second compound 0.316 µM, first compound 0.1 µM
[14] = second compound 0.316 µM, first compound 0.316 µM
[15] = second compound 0.316 µM, first compound 1 µM
[16] = second compound 0.316 µM, first compound 3.16 µM
[17] = second compound 0.316 µM, first compound 10 µM
[18] = second compound 1 µM, first compound 0.0316 µM
[19] = second compound 1 µM, first compound 0.1 µM
[20] = second compound 1 µM, first compound 0.316 µM
[21] = second compound 1 µM, first compound 1 µM
[22] = second compound 1 µM, first compound 3.16 µM
[23] = second compound 1 µM, first compound 10 µM
[24] = second compound 3.16 µM, first compound 0.0316 µM
[25] = second compound 3.16 µM, first compound 0.1 µM
[26] = second compound 3.16 µM, first compound 0.316 µM
[27] = second compound 3.16 µM, first compound 1 µM
[28] = second compound 3.16 µM, first compound 3.16 µM
[29] = second compound 3.16 µM, first compound 10 µM
[30] = second compound 10 µM, first compound 0.0316 µM
[31] = second compound 10 µM, first compound 0.1 µM
[32] = second compound 10 µM, first compound 0.316 µM
[33] = second compound 10 µM, first compound 1 µM
[34] = second compound 10 µM, first compound 3.16 µM
[35] = second compound 10 µM, first compound 10 µM

CC1(C)CCC(CN2CCN(c3ccc(C(=O)NS(=O)(=O)c4ccc(NCC5CCOCC5)c([N+](=O)[O-])c4)c(Oc4cnc5[nH]ccc5c4)c3)CC2)=C(c2ccc(Cl)cc2)C1 + NC1CC1c1ccc(-c2cccc(O)c2)cc1
IC50 [1]: > 10 µM
IC50 [2]: > 10 µM
IC50 [3]: > 10 µM
IC50 [4]: > 10 µM
IC50 [5]: 8.09 µM
viability, T/C [6]: 119%
viability, T/C [7]: 114%
viability, T/C [8]: 115%
viability, T/C [9]: 110%
viability, T/C [10]: 103%
viability, T/C [11]: 66.6%
viability, T/C [12]: 105%
viability, T/C [13]: 114%
viability, T/C [14]: 106%
viability, T/C [15]: 111%
viability, T/C [16]: 100%
viability, T/C [17]: 68.6%
viability, T/C [18]: 113%
viability, T/C [19]: 114%
viability, T/C [20]: 106%
viability, T/C [21]: 106%
viability, T/C [22]: 96.3%
viability, T/C [23]: 60.9%
viability, T/C [24]: 105%
viability, T/C [25]: 110%
viability, T/C [26]: 106%
viability, T/C [27]: 101%
viability, T/C [28]: 93.3%
viability, T/C [29]: 57.3%
viability, T/C [30]: 102%
viability, T/C [31]: 95.7%
viability, T/C [32]: 103%
viability, T/C [33]: 90.8%
viability, T/C [34]: 81.6%
viability, T/C [35]: 42.6%

O=C(c1cc(Cc2n[nH]c(=O)c3ccccc23)ccc1F)N1CCN(C(=O)C2CC2)CC1
viability, T/C (compound 0.0316 µM): 103%
viability, T/C (compound 0.1 µM): 103%
viability, T/C (compound 0.316 µM): 104% and 103%
viability, T/C (compound 1 µM): 96.8% and 102%
viability, T/C (compound 3.16 µM): 85% and 97%
viability, T/C (compound 10 µM): 61.8% and 74.5%
IC50 (curve of compound): > 10 µM

O=C(c1cc(Cc2n[nH]c(=O)c3ccccc23)ccc1F)N1CCN(C(=O)C2CC2)CC1 + NC1CCC(NC2CC2c2ccccc2)CC1
IC50 [1]: > 10 µM
IC50 [2]: > 10 µM
IC50 [3]: > 10 µM
IC50 [4]: > 10 µM
IC50 [5]: 8.15 µM
viability, T/C [6]: 114%
viability, T/C [7]: 119%
viability, T/C [8]: 111%
viability, T/C [9]: 101%
viability, T/C [10]: 83.1%
viability, T/C [11]: 71.4%
viability, T/C [12]: 119%
viability, T/C [13]: 112%
viability, T/C [14]: 115%
viability, T/C [15]: 104%
viability, T/C [16]: 87.1%
viability, T/C [17]: 72.6%
viability, T/C [18]: 115%
viability, T/C [19]: 113%
viability, T/C [20]: 104%
viability, T/C [21]: 92.9%
viability, T/C [22]: 76.6%
viability, T/C [23]: 62.3%
viability, T/C [24]: 99.3%
viability, T/C [25]: 99.3%
viability, T/C [26]: 100%
viability, T/C [27]: 91.8%
viability, T/C [28]: 79.3%
viability, T/C [29]: 57.3%
viability, T/C [30]: 79.8%
viability, T/C [31]: 82.7%
viability, T/C [32]: 88.4%
viability, T/C [33]: 81.7%
viability, T/C [34]: 67.2%
viability, T/C [35]: 46.3%

NS(=O)(=O)OCC1CC(n2ccc3c(NC4CCc5ccccc54)ncnc32)CC1O (configuration not stated) + NC1CC1c1ccc(-c2cccc(O)c2)cc1
IC50 [1]: 0.19 µM
IC50 [2]: 0.178 µM
IC50 [3]: 0.168 µM
IC50 [4]: 0.175 µM
IC50 [5]: 0.165 µM
viability, T/C (second compound 0.1 µM, first compound 0.00949 µM): 113%
viability, T/C (second compound 0.1 µM, first compound 0.03 µM): 96.6%
viability, T/C (second compound 0.1 µM, first compound 0.0949 µM): 94%
viability, T/C (second compound 0.1 µM, first compound 0.3 µM): 21%
viability, T/C (second compound 0.1 µM, first compound 0.949 µM): 9.54%
viability, T/C (second compound 0.1 µM, first compound 3 µM): 13.7%
viability, T/C (second compound 0.316 µM, first compound 0.00949 µM): 104%
viability, T/C (second compound 0.316 µM, first compound 0.03 µM): 92.9%
viability, T/C (second compound 0.316 µM, first compound 0.0949 µM): 88.5%
viability, T/C (second compound 0.316 µM, first compound 0.3 µM): 18.2%
viability, T/C (second compound 0.316 µM, first compound 0.949 µM): 9.34%
viability, T/C (second compound 0.316 µM, first compound 3 µM): 14.3%
viability, T/C (second compound 1 µM, first compound 0.00949 µM): 117%
viability, T/C (second compound 1 µM, first compound 0.03 µM): 98.6%
viability, T/C (second compound 1 µM, first compound 0.0949 µM): 79.1%
viability, T/C (second compound 1 µM, first compound 0.3 µM): 20.3%
viability, T/C (second compound 1 µM, first compound 0.949 µM): 9.8%
viability, T/C (second compound 1 µM, first compound 3 µM): 15.8%
viability, T/C (second compound 3.16 µM, first compound 0.00949 µM): 110%
viability, T/C (second compound 3.16 µM, first compound 0.03 µM): 88.1%
viability, T/C (second compound 3.16 µM, first compound 0.0949 µM): 83.4%
viability, T/C (second compound 3.16 µM, first compound 0.3 µM): 20.8%
viability, T/C (second compound 3.16 µM, first compound 0.949 µM): 10.9%
viability, T/C (second compound 3.16 µM, first compound 3 µM): 16.5%
viability, T/C (second compound 10 µM, first compound 0.00949 µM): 99.9%
viability, T/C (second compound 10 µM, first compound 0.03 µM): 89%
viability, T/C (second compound 10 µM, first compound 0.0949 µM): 76.6%
viability, T/C (second compound 10 µM, first compound 0.3 µM): 21.3%
viability, T/C (second compound 10 µM, first compound 0.949 µM): 13%
viability, T/C (second compound 10 µM, first compound 3 µM): 15.4%
